A word on the inhibition: it is the percentage by which the read-out fell short of the control. Usually IC50 stands for the midpoint of a concentration-inhibition curve.

The structures appear in SMILES notation.

The values below come from article PMC11551755, “Structure-based discovery of first inhibitors targeting the helicase activity of human PIF1” (Nucleic Acids Research, 2024).

Assay [1] concerns the target T1, FLhPIF1 (full length human PIF1) (Homo sapiens, UniProt Q9H611).
T1 construct: Full length human PIF1 (FLhPIF1) was expressed and purified as a His-SUMO fusion; His-SUMO (cleaved yes); made in house; 'following similar protocols' to hPIF1HD (ArcticExpress BL21(DE3) E. coli)
T1 sequence (Q9H611 1-641): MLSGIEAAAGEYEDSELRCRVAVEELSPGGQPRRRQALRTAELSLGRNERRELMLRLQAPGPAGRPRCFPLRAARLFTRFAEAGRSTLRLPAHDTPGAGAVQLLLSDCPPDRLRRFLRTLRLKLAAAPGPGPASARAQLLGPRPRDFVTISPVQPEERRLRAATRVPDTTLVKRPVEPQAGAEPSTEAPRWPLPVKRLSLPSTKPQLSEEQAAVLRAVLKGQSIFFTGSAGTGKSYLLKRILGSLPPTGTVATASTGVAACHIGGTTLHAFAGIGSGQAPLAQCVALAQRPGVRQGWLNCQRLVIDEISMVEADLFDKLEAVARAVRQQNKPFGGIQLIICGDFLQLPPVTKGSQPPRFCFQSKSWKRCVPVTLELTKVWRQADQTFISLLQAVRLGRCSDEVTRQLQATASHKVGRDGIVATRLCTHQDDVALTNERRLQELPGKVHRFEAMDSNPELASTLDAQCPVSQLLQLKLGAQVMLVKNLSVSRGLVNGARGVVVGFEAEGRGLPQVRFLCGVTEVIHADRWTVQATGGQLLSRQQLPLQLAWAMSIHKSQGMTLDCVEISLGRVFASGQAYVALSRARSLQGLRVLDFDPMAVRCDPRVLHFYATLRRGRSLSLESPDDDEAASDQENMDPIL
The assay is described as follows: radiometric strand displacement helicase assay, no pre-incubation. Format: biochemical. To be noted: for inhibition at 1000 µM: 1 mM single point, gel-based DNA unwinding assay, four repeats (S4 n=3); for IC50: 0.0078–2 mM compound, 10 nM FLhPIF1, 0.1 nM DNA substrate, n = 3, read-out: IC50 for inhibition of FLhPIF1 helicase activity; for fold increase in inhibition at 1 mM relative to compound 1: 1 mM single point helicase screen. Here is the method:
Helicase activity was assayed using a radiometric strand displacement assay employing a partially single- and double-stranded substrate generated by annealing two oligonucleotides: 5′-(T)55-[…] and 5′-[…], as described previously ([19],[28]). […] SMIs (100 mM stocks in DMSO) were assayed at up to 2 mM without pre-incubation with FLhPIF1, unless otherwise stated. […] Dried gels were exposed to phosphorimaging plates (Fujifilm) for imaging and quantification (Fuji FLA3000, image gauge V3.3 software). IC50 values were analysed by non-linear regression (variable slope) using GraphPad Prism.

Another assay deals with T2, hPIF1HD V258L (Homo sapiens, UniProt Q9H611, V258L).
T2 construct: The human PIF1 helicase domain and mutants (hPIF1HD, residues 206–620); hexa-histidine tag (N, cleaved yes); made in house; host or cells: ArcticExpress BL21(DE3) E. coli (Agilent Technologies)
T2 sequence (Q9H611 206-620 V258L): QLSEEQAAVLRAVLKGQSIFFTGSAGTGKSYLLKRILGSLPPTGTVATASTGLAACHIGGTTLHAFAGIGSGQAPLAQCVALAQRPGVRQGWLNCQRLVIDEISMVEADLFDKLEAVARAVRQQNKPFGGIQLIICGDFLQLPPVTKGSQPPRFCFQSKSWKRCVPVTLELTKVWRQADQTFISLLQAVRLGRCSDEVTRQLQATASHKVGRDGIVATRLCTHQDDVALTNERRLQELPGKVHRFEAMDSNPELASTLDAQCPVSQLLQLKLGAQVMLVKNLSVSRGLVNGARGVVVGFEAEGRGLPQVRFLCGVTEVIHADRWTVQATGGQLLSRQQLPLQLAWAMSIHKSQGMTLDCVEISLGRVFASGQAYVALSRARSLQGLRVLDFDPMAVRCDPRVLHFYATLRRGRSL
The assay is described as follows: ssDNA d(T)55 binding assay (EMSA), hPIF1HD V258L variant. To be noted: 0.25 nM d(T)55, 2 nM protein, 5 mM AMP-PNP, 0.0078–2 mM compound; read-out: IC50 for inhibition of ssDNA binding, V258L. On the procedure: DNA binding of hPIF1HD was assayed using a ^32P-5′ end-labelled oligo d(T)55 substrate (0.25 nM), under the same buffer conditions described for helicase assays, but with AMP-PNP instead of ATP. Reaction products were resolved on 5% poly-acrylamide gels (29:1 acrylamide:bis-acrylamide) using 0.25× TBE running buffer ([19],[28]). Gels were processed and reaction products quantified by phosphorimaging and IC50 values determined as described above.
In hPIF1HD/AMP-PNP/1 there are no direct hydrogen bonds between amino acid side chains and 1, however, Val 258 from domain 1A is making van der Waals interaction (<3.8 Å) with the amide group at one end of the molecule (Figure 1). From the structural data, we reasoned that substitution of the Val 258 with alanine (V258A) would increase the size of the binding pocket and its accessibility to ligand, while substitution with leucine (V258L) would decrease pocket size and possibly instigate a clash with Lys 556, disrupting interactions with compound 1 or derivatives. Accordingly, we purified hPIF1HD V258A and V258L variant forms and analysed ssDNA d(T)55 binding in the presence of SMIs, using EMSA as above.
Supplementary Figure 12. hPIF1HD variants V258A and V258L ssDNA binding IC50 determination by EMSA with selected SMIs. All binding reactions were assembled under helicase reaction conditions but with 0.25 nM radiolabelled oligo d(T)55, and 5 mM AMP-PNP. (A) DNA binding activity of wild type and mutant proteins was assessed by EMSA without inhibitors. […] 1D: Wild type (WT), V258A and V258L, not determined. 2: WT, 224 ± […]; V258A, 103 ± 31 µM; V258L, 304 ± 88 µM. 5: WT, 198 ± 54 µM; V258A, 79.2 ± 27 µM; V258L, 414 ± 45 µM. 6: WT, 722 ± 194 µM; V258A, 295 ± 116 µM; V258L, 1010 ± 282 µM. 10: WT, 224 ±59 µM; V258A, 152 ± 42 µM; V258L, 378 ± 99 µM. 11: WT, 284 ± 110 µM; V258A, 151 ± 51 µM; V258L, 551 ± 215 µM.

Molecule `CC(=O)c1ccc(-c2csc(N)n2)cc1` [Compound 2] gave an inhibition at 1000 µM in assay [1] of 79.1 ± 5.2%. Besides, the IC50 was 165 ± 75 µM in assay [1] (no pre-incubation) and 304 ± 88 µM on hPIF1HD V258L.

Molecule `N#Cc1ccc(-c2csc(N)n2)cc1` [Compound 5] returned an inhibition at 1000 µM in assay [1] of 84 ± 4.1%. For the same molecule, the IC50 in assay [1] (no pre-incubation) was 105 ± 6 µM; at hPIF1HD V258L, 414 ± 45 µM.

Turning to `Nc1nc(-c2ccc(C(=O)c3ccccc3)cc2)cs1` [Compound 6], the inhibition at 1000 µM in assay [1] was found to be 82.3 ± 6.6%. In addition, in assay [1] (no pre-incubation), the IC50 is 36 ± 7 µM and the “fold improvement of helicase IC50 compared to progenitor 1F” value was found to be 30 fold. The IC50 on hPIF1HD V258L is 1010 ± 282 µM.

Take `CC(=O)Nc1ccc(-c2csc(N)n2)cc1-c1ccc(C)cc1` [Compound 10]: the “inhibition of FLhPIF1 helicase activity in 1 mM single-point screen” value in assay [1] (1 mM) is recorded as “strongly inhibited the protein”. In addition, in assay [1], the “fold increase in inhibition at 1 mM relative to compound 1” value was “up to 6.5 fold” and testing at 1000 µM gave an inhibition of 80.9 ± 5.5%. In addition, in assay [1] (no pre-incubation), the half-inhibitory concentration (IC50) amounted to 174 ± 7 µM. Besides, the IC50 at hPIF1HD V258L came out at 378 ± 99 µM.

For the molecule `CC(=O)Nc1ccc(-c2csc(N)n2)cc1C1=CCNCC1` [Compound 11], in assay [1], the “fold increase in inhibition at 1 mM relative to compound 1” value is recorded as “up to 6.5 fold” and the inhibition at 1000 µM was determined as 84.8 ± 3.4%. Besides, in assay [1] (no pre-incubation), the half-inhibitory concentration (IC50) amounted to 188 ± 8 µM. The IC50 on hPIF1HD V258L was found to be 551 ± 215 µM.
